From US8946269B2, “Crystalline forms of a factor Xa inhibitor” (Portola Pharmaceuticals, Inc., priority 2010, dated 2015)

Tests used:
Type in all cases: physicochemical
[1] = Solubility at 25° C. (slurried in solvent 24 hours, liquid quantified by HPLC)
Source text: Solids were checked by XRPD and the liquid was submitted for quantification by HPLC.

[2] = Physical and chemical stability on storage
Source text: FIG. 10 provides XRPD patterns from turnover experiments. A is an XRPD of Form II.

[3] = pKa determination; conditions: amidine
Procedure: This can be performed on a Sirius GlpKa instrument with a D-PAS attachment. Measurements can be made by UV in aqueous and by potentiometric in methanol and water mixtures at 25° C. The titration media is ionic strength adjusted with 0.15 M KCl. The values found in the methanol and water mixtures are corrected to 0% co-solvent via a Yasuda-Shedlovsky extrapolation. The data can be refined using Refinement Pro software version 1.0. Prediction of pKa values can be made using ACD pKa prediction software Ver. 8.08.

Solubility at 25° C. ([1]; Acetone)	Solubility at 25° C. ([1]; Anhydrous ethanol (0.03% water))	Solubility at 25° C. ([1]; DMF)	Solubility at 25° C. ([1]; IPA)	Solubility at 25° C. ([1]; MTBE)	Solubility at 25° C. ([1]; MeOH, yellow solvate formed)	Solubility at 25° C. ([1]; in ethanol (summary table), listed as Betrixaban Maleate Form II)	time remaining physically and chemically stable ([2]; 25° C. and 60% RH)	time remaining physically and chemically stable ([2]; 40° C. and 75% RH)	pKa [3]	Compound
0.99	4.8	>246	0.63	0.01	37.9 (yellow	4.8 mg/mL in ethanol	at least 6 months	at least 6 months		COc1ccc(NC(=O)c2ccc(C(=N)N(C)C)cc2)c(C(=O)Nc2ccc(Cl)cn2)c1 [Form II]
				0.001					11.4	COc1ccc(NC(=O)c2ccc(C(=N)N(C)C)cc2)c(C(=O)Nc2ccc(Cl)cn2)c1 [Form I, reference compound]
